Holding throughout (type): functional, organism-based
Assay [1] relates to Staphylococcus aureus. The assay is described as follows: Antibacterial activity against small-colony variant Staphylococcus aureus isolate OM299/1 harboring -1 frame shift mutation in 687 nucleotide of menB gene by Etest method.
For assay [2], the system named is Staphylococcus aureus. Briefly: Antibacterial activity against Staphylococcus aureus isolate OM299/1 by Etest method.
The test system of assay [3] is Staphylococcus aureus. The assay is described as follows: Antibacterial activity against small-colony variant Staphylococcus aureus isolate A22616/5 harboring 55-63 nucleotide deletion in menB gene by Etest method.
For assay [4], the system named is Staphylococcus aureus. The assay is described as follows: Antibacterial activity against Staphylococcus aureus isolate A22616/5 by Etest method.
Assay [5] relates to Staphylococcus aureus. The assay is described as follows: Antibacterial activity against Staphylococcus aureus isolate OM1a by Etest method.
Assay [6] has as its system Staphylococcus aureus. The assay is described as follows: Antibacterial activity against small-colony variant Staphylococcus aureus isolate OM1b harboring menB G698T Gly233Val mutant gene by Etest method.
The subject of assay [7] is Staphylococcus aureus. Briefly: Antibacterial activity against phenotypic revertant Staphylococcus aureus OM1b:F2 harboring G698C Val233Ala compensatory mutation in menB gene by Etest method.
Assay [8] has as its system Staphylococcus aureus. Briefly: Antibacterial activity against wild type Staphylococcus aureus OM1b:F5 phenotypic revertant by Etest method.
The subject of assay [9] is Staphylococcus aureus. The assay is described as follows: Antibacterial activity against phenotypic revertant Staphylococcus aureus OM1b:F8 harboring 694-702 nucleotide deletion in menB gene by Etest method.
The test system of assay [10] is Staphylococcus aureus. Briefly: Antibacterial activity against phenotypic revertant Staphylococcus aureus OM1b:F9 harboring G698T/Gly233Val and compensatory A776T/Lys259Ile mutant menB gene by Etest method.

As to GENTAMICIN, the MIC in the assay with Staphylococcus aureus [1] turned out to be 16 µg/mL; against Staphylococcus aureus [2], 0.32 µg/mL; with Staphylococcus aureus [3], 12 µg/mL; against Staphylococcus aureus [4] it was 0.19 µg/mL; in the assay on Staphylococcus aureus [5], 0.125 µg/mL; in the assay on Staphylococcus aureus [6] it was 8 µg/mL. Moreover, the MIC against Staphylococcus aureus [7], in the assay on Staphylococcus aureus [8], against Staphylococcus aureus [9] and in the assay with Staphylococcus aureus [10] was 0.125 µg/mL throughout.

One may read the MIC as the smallest concentration in the dilution series that meets the test's criterion for growth inhibition.

These data come from ChEMBL document CHEMBL1275551, “Identification of the genetic basis for clinical menadione-auxotrophic small-colony variant isolates of Staphylococcus aureus” (Antimicrob Agents Chemother, 2008).
